“Also recorded” adds a separate entry of the source. Where two headings read alike, the source gives them in different places.
Experiments:
VGSC = assay: Patch-clamp recording of VGSC current, cell type not specified or several cell types (summary statements); type: cell-based, human
[1] = system: VGSC of SH-SY5Y cells (Nav1.7, Nav1.2, Nav1.3); assay: Patch-clamp recording of VGSC current in differentiated SH-SY5Y cells; type: cell-based, human; conditions: for IC50: read-out: IC50 (VGSC inhibition)
Excerpt: Furthermore, the inventors focused on the relationship between taste receptors, particularly the sweet or umami receptors containing the T1R3 subunit, which are widely expressed in the brain and nervous system, including the hippocampus and cortex. They used human neuroblastoma cells (SH-SY5Y) that functionally express Nav1.2, Nav1.3, and Nav1.7 (as reported in non-patent literature 8), as well as HEK cells stably expressing Nav1.5 (with endogenous expression of T1R1, T1R2, and T1R3). They observed the effects of taste stimuli on sodium channel activation. By reducing the expression of T1R1 and T1R3 genes using silencing vectors, they confirmed that the effects on sodium channel currents induced by taste stimuli act through taste receptor GPCRs.
The SH-SY5Y cell culture medium was prepared by mixing DMEM (Sigma-Aldrich) and F-12 (Sigma-Aldrich) in equal proportions. To induce neuronal-like differentiation, the medium contained 1% FBS (BioWest), 5% 40 mM L-Glutamine (Fuji Film), and 1% MEM non-essential amino acids (Wako Pure Chemical Industries). During differentiation, SH-SY5Y cells were cultured for at least 5 days with the addition of 10 μM/ml retinoic acid (Fuji Film). In this document, “SH-SY5Y cells” refer to the SH-SY5Y cell line differentiated into neuronal-like cells.

Nav1.5 = assay: Patch-clamp (voltage clamp) recording of VGSC current in HEK cells stably expressing Nav1.5
[2] = system: voltage-dependent potassium channel current of SH-SY5Y cells; assay: Voltage clamp recording of outward potassium current in SH-SY5Y cells; type: cell-based, human; conditions: 2 mM
Excerpt: The inward current represents the transient peak observed immediately after stimulation, while the outward current measures the average value during the last 50 ms of rectangular pulse stimulation.

Kv1.2 = assay: Patch-clamp recording of Kv1.2 potassium current in HEK cells expressing Kv1.2; type: cell-based, human
Protocol: The effects of Aβ peptides or umami substances on sustained potassium currents (VGKC) in cardiac myocytes can be studied using HEK cells expressing VGKC (such as Kv1.2, Kv3.2, Kv3.3) as well as SH-SY5Y cells expressing endogenous T1R GPCRs. For instance, as shown in the implementation example in (FIG. 36B), Aβ peptides were applied to VGKC-expressing human cultured cells, and VGKC currents were recorded using ramp-like or rectangular voltage waveforms via the patch-clamp technique. This allowed measurement of the changes (inhibition) in VGKC currents caused by Aβ peptides. Similar inhibition studies on VGKC can be conducted using umami substance L-glutamate sodium (MSG) (FIG. 36A).
As shown in (FIG. 37), Aβ1-42 peptide, unlike Aβ25-35 targeting T1R3, interacts with T1R1 and inhibits VGSC currents (FIGS. 37D, E).

[3] = system: Nav1.5 in T1R3-silenced HEK cells; assay: VGSC current in HEK Nav1.5 cells with silenced T1R3; type: cell-based, human
Excerpt: The miRNAs Oligo (Thermofisher) used for silencing were annealed to form double-stranded DNA, which was then linked to the miR RNAi Expression Vector using T4 DNA ligase to create the knockdown vector. Specifically, the procedure followed the miR RNAi Expression Vector Kit manual (BLOCK-i™ Pol II miR RNAi Expression Vector Kit with EmGFP (Catalog number: K493600)).
Since Aβ25-35 peptide produced similar effects (enhancing VGSC activity, lowering the excitability threshold) as glutamine, it was considered that Aβ25-35 peptide might also act on T1R2/T1R3 receptors like glutamine. Therefore, in this implementation example, we used HEK-Nav1.5 cells with silenced T1R3 and compared the effect of Aβ25-35 peptide on VGSC with that in control HEK-Nav1.5 cells.
To strengthen these findings, we conducted similar experiments using HEK Nav1.5 cells in which T1R3 expression was silenced (FIG. 22). We measured VGSC currents in T1R3-silenced HEK Nav1.5 cells, applying stimuli every 8 seconds.

CC(Oc1ccc(Cl)cc1Cl)C(=O)O (stereo not drawn) [dichlorprop, 2-(2,4-dichlorophenoxy) propanoic acid]
Rank among sweet taste inhibitors in inhibiting Na+ channels (VGSC; dichlorprop>>clofibrate>lactisole): most effective inhibitor of sodium channels at the lowest concentration; also recorded: most potent | Effects on VGSCs (VGSC; listed as DichrolProp): Inhibition of VGSCs | IC50 ([1]; prepulse −80 mV): 17.3 µM | IC50 ([1]; prepulse/holding voltage −60 mV): 9 µM | Effect on VGSC current amplitude (Nav1.5): reduced the amplitude of VGSC current | Vh of steady-state inactivation curve (Nav1.5; 500 μM): shifted to a more negative potential | Slope of steady-state inactivation curve (Nav1.5; Control vs 300 and 500 μM, t-test): no significant difference | Effect on S-S curve of VGSC in the presence of Taxol (Nav1.5; in the presence of Taxol): shifted the S-S curve of VGSC in the hyperpolarizing direction

Nc1nc2c(ncn2[C@@H]2O[C@H](COP(=O)(O)O)[C@@H](O)[C@H]2O)c(=O)[nH]1 [GMP, guanosine 5′-monophosphate]
Effects on VGSCs (VGSC): enhances VGSC; also recorded: Enhancement of VGSC | Effect on VGSC (VGSC; 1 mM): 1 mM GMP, much like L-Gln, primarily enhances VGSC without altering | Effect on outward potassium current [2]: peak outward potassium current decreases; also recorded: reduced outward potassium currents | Leftward shift in the I-V curve [1]: approximately 10 mV | Effect on VGSC current ([1]; 2 mM): slight increase in VGSC currents | Steady-state inactivation curve ([1]; 2 mM): No change; also recorded: No changes were observed

OC[C@H]1OC(O)[C@H](O)[C@@H](O)[C@@H]1O (stereo partly drawn) [Glucose]
Effects on VGSCs (VGSC; <10 mM): Enhancement of VGSC | Effects on VGSCs (VGSC; >20 mM): Inhibition of VGSCs

COc1cc2c(c(OC)c1OC)-c1ccc(OC)c(=O)cc1[C@@H](NC(C)=O)CC2 [Colchicine]
Effects on VGSCs (VGSC): Enhances VGSC | VGSC current amplitude (VGSC; 2.25 μM, at −40 mV): nearly doubled

N[C@@H](CC(=O)O)C(=O)O [aspartic acid]
Effect on VGSC inactivation (VGSC): delay VGSC inactivation

Brc1c(Br)c(Br)c2[nH]nnc2c1Br [TBB, 4,5,6,7-tetrabromobenzotriazole]
Shift of steady-state inactivation (S-S) curve of VGSC (VGSC): shifted to the hyperpolarizing direction even at control recordings. | Effect on VGSC current amplitude (Nav1.5): reduced the amplitude of VGSC current | Shift of steady-state inactivation (S-S) curve of VGSC (Nav1.5): shifted gradually to the left; also recorded: significantly shifts in the hyperpolarizing direction | Suppression of VGSC current (Nav1.5; 10 μM, prepulse −80 mV, test pulse −20 mV): almost completely suppressed | Suppression of VGSC current (Nav1.5; 10 μM, prepulse −100 mV): about half suppressed | VGSC current unaffected (Nav1.5; 10 μM, prepulse −120 mV): more than 80% | VGSC current inhibition (Nav1.5; minimum concentration (printed 30 μM), preceding pulse −80 mV): nearly complete VGSC current inhibition | Suppression of VGSC current (Nav1.5; prepulse −120 mV, at the used TBB concentration): about 50% | IC50 (Nav1.5; read-out: IC50 from difference in Vh of steady-state inactivation curve (Hill equation)): 12.9 µM | IC50 (Nav1.5; read-out: IC50 of inhibition of VGSC current (INa, step −100 mV to −20 mV, Hill plot), prepulse −100 mV): 15.8 µM

NC(=O)CC[C@H](N)C(=O)O [L-Gln, L-glutamine]
Effects on VGSCs (VGSC): Enhancement of VGSC; also recorded: Delay in VGSC inactivation | Increase in VGSC current (VGSC; 0.5-1 mM, SH-SY5Y (n=8) and HEK-Nav1.5 (n=4)): 10-20% | Effect on VGSC current (VGSC; concentrations higher than 1 mM): 500 uM and 1 mM but not at higher | Effect on VGSC current (VGSC; concentrations higher than 1 mM, listed as glutamine): No further enhancement | Effect on VGSC inward current ([1]; 500 μM): enhancement of transient downward VGSC current; also recorded: amplification of VGSC inward current | Effect on voltage gated K+ channel (Kv1.2) current (Kv1.2): Inhibition of Voltage gated

CC(C)(Cc1ccc2ccccc2c1)NC[C@@H](O)COc1cccc(Cl)c1C#N [NPS-2143]
Effects on VGSCs (VGSC): inhibited human VGSC; also recorded: Inhibition of VGSCs | Required concentration for VGSC inhibition (VGSC; HEK Nav1.5 and SH-SY5Y): 5 µM | Effect on VGSC current (Nav1.5; 5 μM): Inhibitory effect; also recorded: slowly inhibited | Effect on leak (baseline) current (Nav1.5; when VGSC inhibition nearly complete): non-selective leak currents | Effect on VGSC in T1R3-silenced cells [3]: no VGSC inhibitory effect was observed

N[C@@H](CO)C(=O)O [L-Serin, L-serine]
Effects on VGSCs (VGSC): Enhancement of VGSC | Effect on VGSC current (VGSC; 2.5 mM): Enhances VGSC currentat 2.5 mM

NCCCC(=O)O [GABA, γ-aminobutyric acid]
Effect on VGSC current enhanced by Aβ42/40 (AD-D) (Nav1.5; applied after Aβ42/40 (AD-D)): no effects similar to β-alanine were observed

CC(=O)O[C@H]1C(=O)[C@@]2(C)[C@H]([C@H](OC(=O)c3ccccc3)[C@]3(O)C[C@H](OC(=O)[C@H](O)[C@@H](NC(=O)c4ccccc4)c4ccccc4)C(C)=C1C3(C)C)[C@]1(OC(C)=O)CO[C@@H]1C[C@@H]2O [Taxol]
Effects on VGSCs (VGSC): Enhances VGSC | Effect on VGSC current (Nav1.5; 0.4 μM to […]): VGSC enhancement was observed | Effect on VGSC current (Nav1.5; 0.4 μM to […], listed as Paclitaxel (Taxol)): enhances HEK Nav1.5 cell VGSC

COc1ccc(OC(C)C(=O)O)cc1 (stereo not drawn) [Lactisole]
Effects on VGSCs (VGSC): Inhibition of VGSCs | Effect on VGSC enhanced by Aβ25-35 (Nav1.5; 1-1.5 mM): inhibits the enhancing effect of Aβ25-35 on VGSC; also recorded: recovered to the size of VGSC recorded in the control

OC[C@H]1O[C@@](CO)(O[C@H]2O[C@H](CO)[C@@H](O)[C@H](O)[C@H]2O)[C@@H](O)[C@@H]1O [Sucrose]
Effects on VGSCs (VGSC): Inhibition of VGSCs

C/C1=C/C(=O)O[C@@H]2C[C@@H](CC[C@H](C)/C=C\C=C\CC1)O[C@@](O)([C@@H]1CSC(=O)N1)C2 [Latrunculin A]
Effects on VGSCs (VGSC): reduces VGSC | Shift of steady-state inactivation (S-S) curve of VGSC (VGSC): shifting the S-S curve toward hyperpolarization | Effect on VGSC current (VGSC; 12.6 μM): shifted the VGSC current toward hyperpolarization and inhibited it | Effect on VGSC current (VGSC; 12.6 μM, listed as LatA): significantly inhibits VGSC current

NCCCC[C@H](N)C(=O)O [lysine]
Effect on VGSC inactivation (VGSC): delay VGSC inactivation

Source: patent publication US20260240820A1, “METHOD FOR CONTROLLING MEMBRANE POTENTIAL-DEPENDENT ION CHANNEL THROUGH TYPE I TASTE RECEPTORS (T1RS)” (ION CHAT RESEARCH CORPORATE, priority 2022, published 2026)
